Where two headings read alike, the source gives them in different places.
Legend:
[1] = system: 11β-HSD type 1 of adipose tissue; test: Ex vivo activity of 11β-HSD type 1 of adipose tissue after single oral administration to cynomolgus monkeys; assay type: in vivo; conditions: 20 mg/kg single oral, 4 hours, mesenteric and subcutaneous adipose tissue
Protocol: (§1) Five adult male cynomolgus monkeys (same animals used in studies 1 and 2 of Example 4) are fasted the evening before the experiment. Blood samples are taken right before administration of Compound 1K (dose of 20 mg/kg, n=3) or administration of the vehicle (0.5% methylcellulose in water, n=2) then 4 hours after oral administration. The animals are euthanized, necropsy is performed on the monkeys, samples of plasma and of target tissues are taken and then frozen in liquid nitrogen and stored at −70° C. until ex vivo analyses. To test the ex vivo activity of 11β-HSD type 1, 5-10 mg liver samples were incubated in duplicate for 30 minutes at 37° C. with 17 nM [1,2-^3H] cortisone in 50 mM HEPES (pH 7.4), 100 mM KCl, 5 mM NaCl, 2 mM MgCl2. Plasma levels were measured by the LC-MS/MS analytical method. The liver samples were homogenized by sonication and extracted with acetonitrile (1 ml of distilled water, 4 ml of acetonitrile for 200 mg of tissue). Tissue levels of the compounds were measured by the LC-MS/MS analytical method.
(§2) The protocol is the same as that described in Example 5, except that the tissue samples are from mesenteric, subcutaneous and inguinal adipose tissue.

11β-HSD type 1 = test: Inhibition of conversion of prednisone to prednisolone after single administration to cynomolgus monkeys; assay type: in vivo
Protocol: The protocol used is described by Bhat et al. (J. Pharmacol. Exp. Ther. 324, 299-305, 2008).
(§3) Briefly, the study is carried out in naive adult male cynomolgus monkeys fasted overnight. The 11β-HSD type 1 inhibitor or its vehicle (0.5% methylcellulose in water) is administered via nasogastric intubation. Two hours later, a challenge with orally administered prednisone (10 mg/kg) is performed and blood samples are taken regularly for 24 hours. These samples are centrifuged to obtain plasma and immediately frozen at −70° C. until bioanalysis. Plasma levels of prednisone, prednisolone and 11β-HSD type 1 inhibitors are measured by LC-MS/MS analytical methods.
(§4) The study is carried out over a period of 10 weeks. Profiles of plasma concentration as a function of time and areas under the curve are calculated using the trapezoidal method for all parameters.
The effect of Compound 1 is evaluated at three doses: 1.25, 5 and 20 mg/kg.
The effect of Compound 1K is evaluated at three doses: 20, 40 and 80 mg/kg. The protocol is quite similar to the preceding, except that only 5 blood samples were taken per monkey rather than 7. Compound 1K was also evaluated over a period of 10 weeks.
The 11β-HSD type 1 activity-dependent conversion of prednisone to prednisolone was evaluated. Compound 2K inhibits roughly 50% this activity at a dose of 20 mg/kg (FIG. 2A). FIG. 2 represents the effects of Compound 2K, at the three doses tested, on plasma prednisolone/prednisone ratio calculated with the area under the curve between 30 minutes and 4 hours (panel A) and on plasma exposure during the 6-hour experimental period (panel B); the results obtained with Compound 1K at a dose of 5 mg/kg are compared in the two panels.

[2] = Plasma and tissue levels after single oral administration in cynomolgus monkeys (LC-MS/MS); assay type: in vivo; conditions: male, cynomolgus monkey, 20 mg/kg oral
Protocol: as §1, §2

human 11β-HSD type 1 [3] = biological target: T1, human 11β-HSD type 1 (Homo sapiens, UniProt P28845); test: Plasma bioactivity after single oral administration in C57BL/6N mice, read as inhibition of human 11β-HSD type 1 (SPA); assay type: in vivo; conditions: for inhibition at 2.5 mg/kg / inhibition at 10 mg/kg: po, mice, table with plasma levels; for inhibition at 2.5 mg/kg: 2.5 mg/kg oral; for inhibition at 10 mg/kg: 10 mg/kg oral
Protocol: (§5) The evaluation is made in on 4- to 6-week-old non-fasted male C57BL/6N strain mice. The compounds to be tested or the vehicle (0.5% methylcellulose in water, at 10 ml/kg) are administered orally; n=3 mice per treatment.
(§6) Blood samples are collected 1 h and 4 h after administration; the tubes are centrifuged to obtain plasma and frozen at −70° C. until bioanalysis. Plasma bioactivity (2% final volume) is analyzed by using the inhibition of human 11β-HSD type 1 as a detection system (SPA technology) for each compound at each dose tested. Percent inhibition (versus mice treated with carrier) is calculated for each dose.

human 11β-HSD type 1 [4] = biological target: T1, human 11β-HSD type 1; test: Bioactivity of inguinal white adipose tissue after single oral administration in C57BL/6N mice, read as inhibition of human 11β-HSD type 1 (SPA); assay type: in vivo; conditions: mouse inguinal white adipose tissue extract
Protocol: Four hours post-administration, the mice are euthanized and inguinal white adipose tissue is taken and frozen at −70° C. until the day of bioanalyses. The white adipose tissue is homogenized in liquid nitrogen and then treated with acetonitrile (1 ml of distilled water for 4 ml of acetonitrile and 200 mg of inguinal white adipose tissue) to extract soluble substances. The acetonitrile fraction is collected, then dried, and the residue is dissolved in 1 ml of DMSO for 300 mg of white adipose tissue.
Compounds tested: the same as those of Example 2.

[5] = Plasma exposure in cynomolgus monkeys (prednisone challenge studies, LC-MS/MS); assay type: in vivo; conditions: same dose of 20 mg/kg
Protocol: as §3, §4

hepatic 11β-HSD type 1 = test: Ex vivo activity of hepatic 11β-HSD type 1 after single oral administration in cynomolgus monkeys; conditions: 20 mg/kg single oral, liver 4 hours after administration
Protocol: as §1

[6] = Plasma level by LC/MS after single oral administration in C57BL/6N mice; assay type: in vivo; conditions: parent molecule by LC/MS
Protocol: as §5, §6
Compound 1 is detected in the plasma of the treated mice and inhibits 11β-HSD type 1 as of 0.63 mg/kg. LC/MS analyses of plasma samples from the animals treated with Compound 1K show a much higher plasma level of the parent molecule than that found for Compound 1.

[7] = Clinical and behavioral signs in cynomolgus monkeys during the prednisone challenge studies; assay type: in vivo; conditions: study no. 2, 20, 40 and 80 mg/kg, even at 80 mg/kg
Protocol: as §3, §4

[8] = 1 h, read-out: Plasma 1 h % inh.
[9] = 4 h, read-out: Plasma 4 h % inh.

T1 sequence (P28845 whole entry): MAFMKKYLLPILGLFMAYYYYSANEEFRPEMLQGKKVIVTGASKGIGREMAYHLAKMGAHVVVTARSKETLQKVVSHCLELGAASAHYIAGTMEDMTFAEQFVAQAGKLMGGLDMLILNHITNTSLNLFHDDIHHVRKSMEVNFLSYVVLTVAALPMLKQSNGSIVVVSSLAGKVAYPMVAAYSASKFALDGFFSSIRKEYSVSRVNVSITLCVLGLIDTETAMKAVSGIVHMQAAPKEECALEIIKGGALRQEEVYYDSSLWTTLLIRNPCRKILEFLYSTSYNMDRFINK

With CN1C(C(=O)c2ccc3ccccc3c2)=C([O-])c2ccccc2S1(=O)=O.[K+] [Compound 1K, potassium 3-(2-naphthoyl)-2-methyl-2H-benzo[e][1,2]thiazin-4-olate 1,1-dioxide] the “inhibition of ex vivo activity of 11β-HSD type 1 of peripheral and visceral adipose tissue” value [1] was “complete inhibition”, the “inhibition of plasma prednisolone/prednisone ratio of AUC (30 minutes to 4 hours)” value (11β-HSD type 1; 20 mg/kg, prednisone 10 mg/kg 2 h later) was 81% and the “inhibition of conversion of prednisone to prednisolone (prednisolone/prednisone AUC ratio)” value (11β-HSD type 1; 40 mg/kg) was 79%. For the same compound, the “inhibition of conversion of prednisone to prednisolone (prednisolone/prednisone AUC ratio)” value (11β-HSD type 1; 80 mg/kg) was 89%, the “"maximum" inhibition of plasma prednisolone/prednisone ratio of AUC (30 minutes to 4 hours)” value (11β-HSD type 1; all the doses tested (20, 40 and 80 mg/kg), 5 animals per group) was “at least 80%” and the concentration at 4 h ([2]; liver, read-out: mean hepatic levels (in relative value)) was 13600 ± 3700 ng/g. It also gave a concentration at 4 h ([2]; inguinal adipose tissue, read-out: tissue levels (in relative value), inguinal adipose tissue) of 6100 ± 1500 ng/g, a concentration at 4 h ([2]; mesenteric adipose tissue, read-out: tissue levels (in relative value), mesenteric adipose tissue) of 6600 ± 400 ng/g and a concentration at 4 h ([2]; plasma, ± SEM, n=3, read-out: mean plasma levels) of 17000 ± 3580 ng/mL. For the same compound, the concentration at 4 h ([2]; subcutaneous adipose tissue, read-out: tissue levels (in relative value), subcutaneous adipose tissue) was 1300 ± 100 ng/g, the “% inhibition at 1 h” value (human 11β-HSD type 1 [3]; mouse plasma (2% final volume), 1 h after 0.63 mg/kg oral) was 47% and the “% inhibition at 1 h” value (human 11β-HSD type 1 [3]; mouse plasma, 1 h after 2.5 mg/kg oral) was 78%. The “% inhibition at 1 h” value (human 11β-HSD type 1 [3]; mouse plasma, 1 h after 10 mg/kg oral) was 91%, the “% inhibition at 4 h” value (human 11β-HSD type 1 [3]; mouse plasma, 4 h after 0.63 mg/kg oral) was 36% and the “% inhibition at 4 h” value (human 11β-HSD type 1 [3]; mouse plasma, 4 h after 2.5 mg/kg oral) was 67%. For the same compound, the “% inhibition at 4 h” value (human 11β-HSD type 1 [3]; mouse plasma, 4 h after 10 mg/kg oral) was 86%, the inhibition at 2.5 mg/kg (human 11β-HSD type 1 [3]; [8]) was 75 ± 4% and the inhibition at 2.5 mg/kg (human 11β-HSD type 1 [3]; [9]) was 63 ± 6%. For the same compound, the inhibition at 10 mg/kg (human 11β-HSD type 1 [3]; [8]) was 89 ± 1%, the inhibition at 10 mg/kg (human 11β-HSD type 1 [3]; [9]) was 85 ± 2% and the “% inhibition after 4 h” value (human 11β-HSD type 1 [4]; 4 h after 0.63 mg/kg oral) was 21%. For the same compound, the “% inhibition after 4 h” value (human 11β-HSD type 1 [4]; 4 h after 2.5 mg/kg oral) was 41%, the “% inhibition after 4 h” value (human 11β-HSD type 1 [4]; 4 h after 10 mg/kg oral) was 70% and the “increase of plasma exposure versus Compound 1” value [5] was about 8 fold. For the same compound, the “inhibition of the ex vivo activity of hepatic 11β-HSD type 1” value (hepatic 11β-HSD type 1) was 68%, the “Plasma 1 h” value ([6]; 10 mg/kg oral, 1 h) was 13900 ± 2117 ng/mL and the concentration at 1 h ([6]; male, C57BL/6N, mouse, plasma, po, 2.5 mg/kg, 2.5 mg/kg oral, 1 h) was 4240 ± 1260 ng/mL. The concentration at 4 h ([6]; male, C57BL/6N, mouse, plasma, po, 2.5 mg/kg, 2.5 mg/kg oral) was 3470 ± 2430 ng/mL, the concentration at 4 h ([6]; male, C57BL/6N, mouse, plasma, po, 10 mg/kg, 10 mg/kg oral) was 6810 ± 674 ng/mL and the “clinical or behavioral sign” value [7] was “No particular clinical or behavioral sign”.

— patent publication US20180140609A1, “USE OF (4-HYDROXY-2-METHYL-1,1-DIOXIDO-2H-BENZO[E][1,2]THIAZINE-3-YL)(NAPHTHALENE-2-YL) METHANONE IN THE PREVENTION AND/OR TREATMENT OF NON-ALCOHOLIC STEATOHEPATITIS” (PIERRE FABRE MEDICAMENT, priority 2015, published 2018)
